Measurements published in patent US20030096004A1, “(S,S'),(S,R')-amphetaminil, compositions and uses thereof” (priority 2001, published 2003).

Legend:
normal rats [1] = test: Locomotor activity in normal rats (grid line crossings); format: in vivo, rat; details: for locomotor activity (overall effect): male Wistar rats, all doses tested; for cumulative locomotor activity: vs vehicle
Method: (§1) Male Wistar rats (n=4 per group) were randomly allocated to each drug treatment group. Drugs were administered such that, with the exception of fusaric acid, each rat in each group received all doses of the drug or vehicle in a semi random manner according to the modified Latin Square in Table 1. Compounds were administered at the doses: 0.1, 1 and 10 mg/kg s.c. in 100% DMS0 (vehicle). Amphetamine was administered at 0.1, 1 and 5 mg/kg s.c. in saline (vehicle). Fusaric acid was administered at 20, 40 and 80 mg/kg s.c. in saline (vehicle). Rats received each dose of fusaric acid (20, 40 and 80 mg/kg), doses given in order, starting with vehicle. A one-week interval was provided between doses.
(§2) At the start of the experiment, rats were placed in standard perspex behaviour boxes with a visible grid on the floor to allow determination of locomotor activity. The animals were allowed to acclimatise to their environment for 1 hour prior to drug/saline administration. Following drug administration animals were returned to the behaviour cages and locomotor activity was assessed for a further 5 hours or until baseline (zero activity for 30 minutes) was achieved, whichever was sooner. Locomotor activity was assessed by videoing the rats throughout the experiment, and counting the number of times a rat crossed a grid line during a period of 5 minutes every 10 minutes. Throughout the experiment animals were scored for stereotyped behaviours for 15 seconds every 10 minutes by a trained observer using the scoring methods described in Table 2.
The mean and standard error for locomotor activity over 10 minutes for each rat at each time point was determined. […] Cumulative activity, during the 300 min was also calculated, and the effect of dose of drug was analyzed by one-way repeated measures ANOVA followed by Dunnett's t-test (GraphPad Prizm). Data was also analysed for significant fit to a sigmoidal-shaped log dose-response curve using non-linear regression analysis (GraphPad Prizm).

[2] = system: children with hyperkinetic syndrome; details: Pacit et al., 1996; cited from earlier work
normal rats [3] = test: Induction of stereotyped behaviour in normal rats (stereotypy scoring); format: in vivo, rat; details: for duration of stereotypy: 300 min experiment; for stereotypy (overall effect): male Wistar rats, all doses tested; for stereotypy (overall effect) / onset of stereotypy: s.c.; for onset of stereotypy: 10 mg/kg stated for (S,S′),(S,R′)-amphetaminil; for differences in overall stereotypy between groups: total stereotypy score, 0.1-10 mg/kg s.c. vs vehicle
Method: as §1, §2
The mean and standard error for stereotypy activity for 15 seconds every 10 minutes for each rat at each time point was determined. […] Cumulative activity during the 300 min was also calculated, and the effect of dose of drug was analyzed by Kruskall Wallis one-way ANOVA (GraphPad Prizm). Data was also analysed for significant fit to a sigmoidal-shaped log dose-response curve using non-linear regression analysis (GraphPad Prizm)

In the case of `CC(Cc1ccccc1)NC(C#N)c1ccccc1` (racemic) [Racemic amphetaminil, alpha-[(1-methyl-2-phenylethyl)amino]benzeneacetonitrile], the “locomotor activity (overall effect)” value (normal rats [1]; s.c.) is listed as “increased locomotor activity only at the highest dose of 10 mg/kg”, the “efficacy in the treatment of ADHD in children” value [2] is listed as “efficacy” and the duration of stereotypy (normal rats [3]; 10 mg/kg s.c.) is listed as “sustained for the duration of the experiment”. The “stereotypy (overall effect)” value (normal rats [3]) was “increased stereotypy in a log dose-related manner”, the onset of stereotypy (normal rats [3]) was “rapid” and the “differences in overall stereotypy between groups” value (normal rats [3]) was “did not reach statistical significance”.
With `C[C@@H](Cc1ccccc1)NC(C#N)c1ccccc1` (stereo partly drawn) [(S,S′),(S,R′)-Amphetaminil, alpha-[(1S-Methyl-2-phenylethyl)amino]benzeneacetonitrile] the “share of the racemate's pharmacological activity, cumulative locomotor activity (FIGS. 3B and 4B)” value (normal rats [1]; 1 mg/kg) was “responsible for nearly all of the pharmacological activity of the racemate”, the cumulative locomotor activity (normal rats [1]; 10 mg/kg s.c.) was “significant effect” and the “locomotor activity (overall effect)” value (normal rats [1]; s.c.) was “increased locomotor activity in a dose-related manner”. For the same compound, the “onset of locomotor activity after administration” value (normal rats [1]; s.c.) was at most 30 min, the “peak of locomotor activity” value (normal rats [1]; s.c.) was 60 min and the “share of the racemate's pharmacological activity, total stereotypy score (FIGS. 7B and 8B)” value (normal rats [3]; 1 mg/kg) was “responsible for nearly all of the pharmacological activity of the racemate”. The peak of stereotypy (normal rats [3]; 10 mg/kg s.c.) was 100 min, the duration of stereotypy (normal rats [3]; 10 mg/kg s.c.) was “sustained during the 300 min duration of the experiment” and the “stereotypy (overall effect)” value (normal rats [3]) was “increased stereotypy in a log dose-related manner”. For the same compound, the onset of stereotypy (normal rats [3]) was “rapid” and the “differences in overall stereotypy between groups” value (normal rats [3]) was “did not reach statistical significance”.
In the case of `CC(N)Cc1ccccc1` (centres unmarked) [Amphetamine], the “onset of locomotor activity” value (normal rats [1]; 5 mg/kg s.c.) is reported as “rapid”, the “time of maximum effect on locomotor activity after administration” value (normal rats [1]; 5 mg/kg s.c.) is reported as 30 min and the cumulative locomotor activity (normal rats [1]; 5 mg/kg s.c., over the duration of the experiment) is reported as “significantly increased”. For the same compound, the “locomotor activity (overall effect)” value (normal rats [1]; s.c.) was “dose-related increase in locomotor activity”, the “overall stereotypy during the 300 min duration of the experiment” value (normal rats [3]; 5 mg/kg s.c.) was “tended to increase” and the “stereotypy (overall effect)” value (normal rats [3]) was “log dose-related increase stereotypy”.
